Experimental data taken from the supplement of paper PMC10307832.

What was measured:
Test in all cases: relative viability (nuclei count vs DMSO), 5 days (fraction); higher = more cells survive
[1] = compound: O=S(=O)(c1ccccc1)N(CC(F)(F)F)c1ccc(C(O)(C(F)(F)F)C(F)(F)F)cc1 + O=C(c1cc(Cc2n[nH]c(=O)c3ccccc23)ccc1F)N1CCN(C(=O)C2CC2)CC1 [Olaparib] (partner 8 µM)
Summary of the method: (§1)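 Relative viability equals treated-well nuclei counts divided by vehicle-well nuclei counts. Counts came from 4× images of lung cancer cell lines grown in 1536-well plates for 5 days after pin-tool dosing on the day after seeding. Dosing used one drug alone or a fixed anchor-drug dose plus five library-drug doses (not always all listed) in √10 steps, and values are medians of duplicate plates.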

[2] = compound: O=S(=O)(c1ccccc1)N(CC(F)(F)F)c1ccc(C(O)(C(F)(F)F)C(F)(F)F)cc1 + Cc1nc(NC(=O)N2CCC[C@H]2C(N)=O)sc1-c1ccnc(C(C)(C)C(F)(F)F)c1 [Alpelisib] (partner 2 µM)
Summary of the method: as §1

RO-3306 + Pictilisib = compound: C1=CC2=C(C=CC(=C2)C=C3C(=O)NC(=NCC4=CC=CS4)S3)N=C1 [RO-3306] + CS(=O)(=O)N1CCN(Cc2cc3nc(-c4cccc5[nH]ncc45)nc(N4CCOCC4)c3s2)CC1 [Pictilisib] (partner 1 µM)
Summary of the method: as §1

RO-3306 + Palbociclib = compound: C1=CC2=C(C=CC(=C2)C=C3C(=O)NC(=NCC4=CC=CS4)S3)N=C1 [RO-3306] + CC(=O)c1c(C)c2cnc(Nc3ccc(N4CCNCC4)cn3)nc2n(C2CCCC2)c1=O [Palbociclib] (partner 0.5 µM)
Summary of the method: as §1

Row | Cell Line | relative viability ([1]; first compound 0.8 µM) | relative viability ([1]; first compound 2.53 µM) | relative viability ([1]; first compound 8 µM) | relative viability ([2]; first compound 0.8 µM) | relative viability ([2]; first compound 2.53 µM) | relative viability ([2]; first compound 8 µM) | relative viability (RO-3306 + Pictilisib; first compound 0.01 µM) | relative viability (RO-3306 + Pictilisib; first compound 0.03162 µM) | relative viability (RO-3306 + Pictilisib; first compound 0.1 µM) | relative viability (RO-3306 + Pictilisib; first compound 0.3162 µM) | relative viability (RO-3306 + Pictilisib; first compound 1 µM) | relative viability (RO-3306 + Palbociclib; first compound 0.01 µM) | relative viability (RO-3306 + Palbociclib; first compound 0.03162 µM) | relative viability (RO-3306 + Palbociclib; first compound 0.1 µM) | relative viability (RO-3306 + Palbociclib; first compound 0.3162 µM) | relative viability (RO-3306 + Palbociclib; first compound 1 µM)
1 | NCI-H2009 | 0.663 | 0.685 | 0.648 | 1.09 | 1.02 | 0.964 | 0.96 | 0.712 | 0.806 | 0.753 | 0.636 | 0.216 | 0.203 | 0.18 | 0.25 | 0.203
2 | NCI-H2023 | 0.601 | 0.48 | 0.441 | 0.574 | 0.606 | 0.506 | 0.168 | 0.241 | 0.225 | 0.219 | 0.167 | 0.389 | 0.376 | 0.276 | 0.443 | 0.251
3 | NCI-H2085 | 0.745 | 0.686 | 0.742 | 0.982 | 0.885 | 0.969 | 0.388 | 0.467 | 0.467 | 0.492 | 0.479 | 0.448 | 0.48 | 0.506 | 0.446 | 0.471
4 | NCI-H2087 | 0.643 | 0.609 | 0.637 | 1.16 | 1.11 | 0.972 | 0.988 | 0.698 | 1.01 | 0.974 | 0.836 | 0.226 | 0.233 | 0.171 | 0.238 | 0.197
5 | NCI-H2126 | 0.999 | 0.878 | 0.803 | 0.878 | 0.768 | 0.773 | 0.413 | 0.426 | 0.506 | 0.425 | 0.477 | 0.326 | 0.363 | 0.369 | 0.346 | 0.373
6 | NCI-H2170 | 0.666 | 0.563 | 0.609 | 0.961 | 0.804 | 0.798 | 0.292 | 0.303 | 0.305 | 0.312 | 0.334 | 0.416 | 0.398 | 0.372 | 0.433 | 0.378
7 | NCI-H2228 | 0.678 | 0.578 | 0.589 | 0.88 | 0.491 | 0.502 | 0.456 | 0.37 | 0.363 | 0.381 | 0.269 | 0.753 | 0.404 | 0.622 | 0.771 | 0.433
8 | NCI-H2347 | 0.566 | 0.522 | 0.572 | 1.25 | 1.2 | 1.04 | 0.715 | 0.477 | 0.642 | 0.881 | 0.668 | 0.475 | 0.438 | 0.397 | 0.387 | 0.417
9 | NCI-H2405 | 0.846 | 0.819 | 0.777 | 0.877 | 0.795 | 0.868 | 0.369 | 0.433 | 0.496 | 0.534 | 0.427 | 0.553 | 0.45 | 0.562 | 0.518 | 0.494
10 | NCI-H3122 | 0.678 | 0.599 | 0.654 | 0.744 | 0.627 | 0.672 | 0.602 | 0.56 | 0.624 | 0.611 | 0.525 | 0.188 | 0.18 | 0.19 | 0.199 | 0.209
11 | PC-3 [JPC-3] |  | 1.09 | 1.1 | 1.18 | 0.995 | 1.02 | 0.725 | 0.717 | 0.672 | 0.769 | 0.882 | 0.54 | 0.563 | 0.567 | 0.495 | 0.569
12 | PC-14 | 0.201 | 0.198 | 0.204 | 0.829 | 0.697 | 0.525 | 0.892 | 0.539 | 0.648 | 0.592 | 0.511 | 0.654 | 0.4 | 0.494 | 0.538 | 0.577
13 | RERF-LC-KJ | 0.853 | 0.893 | 0.88 | 0.857 | 0.701 | 0.858 | 0.563 | 0.487 | 0.591 | 0.552 | 0.435 | 1.27 | 0.993 | 1.16 | 1.1 | 1.08
14 | SK-LU-1 | 0.446 | 0.472 | 0.433 | 1.16 | 1.23 | 0.903 | 0.539 | 0.603 | 0.651 | 0.671 | 0.521 | 0.365 | 0.366 | 0.382 | 0.336 | 0.355
15 | SK-MES-1 | 0.743 | 0.728 | 0.579 | 0.827 | 0.789 | 0.848 | 0.324 | 0.334 | 0.353 | 0.413 | 0.355 | 0.355 | 0.305 | 0.352 | 0.289 | 0.272
16 | SW 1573 | 0.527 | 0.43 | 0.514 | 0.889 | 0.697 | 0.757 | 0.536 | 0.406 | 0.534 | 0.534 | 0.39 | 0.445 | 0.399 | 0.377 | 0.316 | 0.369
